Laboratory results published in US20090221559A1 (priority 2005, published 2009).
Read-outs that look alike come from different tables or passages of the source.

What was measured:
[1] = biological target: T1, HCV NS5B polymerase (His-tagged, C-terminal 21 amino acid deleted NS5B, HC-J4) (Hepatitis C virus genotype 1b, UniProt O92972); assay: NS5b polymerase assay (biochemical RdRp assay, 3H-GTP incorporation, SPA beads); parameters: species or system HCV genotype 1b; conditions: 3H-GTP incorporation, 2 h at 25° C.
T1 construct: The cDNA encoding NS5B amino acid 1-570 (HC-J4, genotype 1b); His tag (His6, from pET-21b) (C); made in house; host or cells: E. coli BL21 (DE3)
T1 sequence (O92972 2417-3000, looked up, stated change not applied): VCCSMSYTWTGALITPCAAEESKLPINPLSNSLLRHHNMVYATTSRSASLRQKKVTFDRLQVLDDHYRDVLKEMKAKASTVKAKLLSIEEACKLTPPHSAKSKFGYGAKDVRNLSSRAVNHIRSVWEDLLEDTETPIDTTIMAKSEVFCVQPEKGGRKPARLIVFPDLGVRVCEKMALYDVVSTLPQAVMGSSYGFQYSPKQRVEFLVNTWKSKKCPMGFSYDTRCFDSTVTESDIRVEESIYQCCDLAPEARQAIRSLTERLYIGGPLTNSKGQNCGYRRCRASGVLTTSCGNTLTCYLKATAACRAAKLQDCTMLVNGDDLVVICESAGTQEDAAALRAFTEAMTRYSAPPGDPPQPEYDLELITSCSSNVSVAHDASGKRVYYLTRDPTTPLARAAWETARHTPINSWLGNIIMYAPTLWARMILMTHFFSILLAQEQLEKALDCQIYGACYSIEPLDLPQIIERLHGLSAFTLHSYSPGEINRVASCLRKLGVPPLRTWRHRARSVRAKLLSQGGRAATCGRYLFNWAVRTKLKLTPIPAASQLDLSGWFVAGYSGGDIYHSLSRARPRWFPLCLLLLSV
In short: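 3H-GTP incorporation into newly made RNA was captured on SPA beads added in EDTA after 2 h at 25 °C. Compounds in DMSO met preformed enzyme–template complex (200 nM truncated His-NS5B, HC-J4 1b; biotin-oligo(rG13)/poly(rC)) for 15 min at RT, then 600 nM GTP, 5 mM MgCl2, Tris pH 7.5 started polymerization.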

[2] = test system: HCV replicon RNA replication in Huh-7 luc/neo (Huh-Luc) cells; assay: HCV replicon assay (stable replicon cell reporter assay, luciferase read-out); type: cell-based, HCV type 1b
In short: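 Three-day compound exposure used Huh-Luc cells, which harbour an autonomously replicating genotype 1b NS3-NS5B replicon expressing luciferase and neo^R. Luciferase signal served as the replication read-out, and dose-response curves came from several concentrations per compound.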

[3] = NS5B Polymerase Assay IC50, 200 nM enzyme
[4] = Hepatitis C virus, Huh-7, 72 h, read-out: Replicon Assay EC50, Huh-Luc cells, three days incubation, luciferase activity
[5] = 200 nM enzyme, read-out: NS5B Polymerase Assay IC50
[6] = Huh-Luc cells, three days incubation, luciferase activity, read-out: Replicon Assay EC50

Compound	IC50 [1, 3]	EC50 [2, 4]	IC50 [1, 5]	EC50 [2, 6]
CC(=O)N1c2ccccc2NC2=C(C(=O)CC(C)(C)C2)C1c1cc(Cl)cc(Cl)c1 (centres unmarked) [compound 133, 10-acetyl-11-[3,5-dichlorophenyl]-3,3-dimethyl-2,3,4,5,10,11-hexahydro-1H-dibenzo[b,e][1,4]diazepin-1-one]	> 133 µM	11 µM	–	–
CC(=O)N1c2ccccc2NC2=C(C(=O)CC(C)(C)C2)C1c1ccc(Oc2ccccc2)cc1 (centres unmarked) [compound 134, 10-acetyl-11-(4-phenoxyphenyl)-3,3-dimethyl-2,3,4,5,10,11-hexahydro-1H-dibenzo[b,e][1,4]diazepin-1-one]	47.3 µM	4.64 µM	–	–
CC(=O)N1c2ccccc2NC2=C(C(=O)CC(C)(C)C2)C1c1cccc(Oc2ccccc2)c1 (centres unmarked) [compound 135]	54.7 µM	2.47 µM	–	–
CC(=O)N1c2ccccc2NC2=C(C(=O)CC(C)(C)C2)C1c1cccc(OCc2ccccc2)c1 (centres unmarked) [compound 136, 10-acetyl-11-(3-benzyloxyphenyl)-3,3-dimethyl-2,3,4,5,10,11-hexahydro-1H-dibenzo[b,e][1,4]diazepin-1-one]	> 133 µM	9.51 µM	–	–
CC(=O)N1c2ccccc2NC2=C(C(=O)CC(C)(C)C2)C1c1ccc(O)cc1 (centres unmarked) [compound 137, 10-acetyl-11-(4-hydroxyphenyl)-3,3-dimethyl-2,3,4,5,10,11-hexahydro-1H-dibenzo[b,e][1,4]diazepin-1-one]	> 133 µM	> 100 µM	–	–
CC(=O)N1c2ccccc2NC2=C(C(=O)CC(C)(C)C2)C1c1cc(Cl)ccc1Cl (centres unmarked) [compound 138, 10-acetyl-11-[2,5-dichlorophenyl]-3,3-dimethyl-2,3,4,5,10,11-hexahydro-1H-dibenzo[b,e][1,4]diazepin-1-one]	> 133 µM	26.7 µM	–	–
CC(=O)N1c2ccccc2NC2=C(C(=O)CC(C)(C)C2)C1c1ccc(OCc2cccnc2)cc1 (centres unmarked) [compound 140, 10-acetyl-3,3-dimethyl-11-[4-(3-pyridylmethoxy)phenyl]-2,3,4,5,10,11-hexahydro-1H-dibenzo[b,e][1,4]diazepin-1-one]	19.1 µM	7.23 µM	–	–
CC(=O)N1c2ccccc2NC2=C(C(=O)CC(C)(C)C2)C1c1ccc(OCc2ccccn2)cc1 (centres unmarked) [compound 141, 10-acetyl-3,3-dimethyl-11-[4-(2-pyridylmethoxy)phenyl]-2,3,4,5,10,11-hexahydro-1H-dibenzo[b,e][1,4]diazepin-1-one]	7.91 µM	16.3 µM	–	–
CC(=O)N1c2ccccc2NC2=C(C(=O)CC(C)(C)C2)C1c1cc(Cl)c(OCc2ccccc2)c(Cl)c1 (centres unmarked) [compound 143, 10-acetyl-11-[4-benzyloxy-3,5-dichlorophenyl]-3,3-dimethyl-2,3,4,5,10,11-hexahydro-1H-dibenzo[b,e][1,4]diazepin-1-one]	16 µM	6.3 µM	–	–
CC(=O)N1c2ccccc2NC2=C(C(=O)CC(C)(C)C2)C1c1ccc(OCc2ccccc2)cc1OCc1ccccc1 (centres unmarked) [compound 144, 10-acetyl-11-[2,4-dibenzyloxyphenyl]-3,3-dimethyl-2,3,4,5,10,11-hexahydro-1H-dibenzo[b,e][1,4]diazepin-1-one]	23 µM	3.1 µM	–	–
CC(=O)N1c2ccccc2NC2=C(C(=O)CC(C)(C)C2)C1c1ccc(OCc2ccncc2)cc1 (centres unmarked) [compound 145, 10-acetyl-3,3-dimethyl-11-[4-(4-pyridylmethoxy)phenyl]-2,3,4,5,10,11-hexahydro-1H-dibenzo[b,e][1,4]diazepin-1-one]	23.1 µM	5.92 µM	–	–
CC(=O)N1c2ccccc2NC2=C(C(=O)CC(C)(C)C2)C1c1ccc(F)cc1F (centres unmarked) [compound 146, 10-acetyl-11-(2,4-difluorophenyl)-3,3-dimethyl-2,3,4,5,10,11-hexahydro-1H-dibenzo[b,e][1,4]diazepin-1-one]	2.02 µM	23.9 µM	–	–
CC(=O)N1c2ccccc2NC2=C(C(=O)CC(C)(C)C2)C1c1ccc(Oc2ccccc2Br)cc1 (centres unmarked) [compound 147, 10-acetyl-11-[4-(2-bromophenoxy)phenyl]-3,3-dimethyl-2,3,4,5,10,11-hexahydro-1H-dibenzo[b,e][1,4]diazepin-1-one]	1.97 µM	4.22 µM	–	–
CC(=O)N1c2ccccc2NC2=C(C(=O)CC(C)(C)C2)C1c1ccc(OCc2ccccc2Cl)cc1 (centres unmarked) [compound 148, 10-acetyl-11-[4-(2-chlorobenzyloxy)phenyl]-3,3-dimethyl-2,3,4,5,10,11-hexahydro-1H-dibenzo[b,e][1,4]diazepin-1-one]	83.7 µM	3.23 µM	–	–
CC(=O)N1c2ccccc2NC2=C(C(=O)CC(C)(C)C2)C1c1cccc(Oc2ccccc2Br)c1 (centres unmarked) [compound 149, 10-acetyl-11-[3-(2-bromophenoxy)phenyl]-3,3-dimethyl-2,3,4,5,10,11-hexahydro-1H-dibenzo[b,e][1,4]diazepin-1-one]	30.4 µM	1.78 µM	–	–
CC(=O)N1c2ccccc2NC2=C(C(=O)CC(C)(C)C2)C1c1c(Cl)cc(OCc2ccccc2)cc1Cl (centres unmarked) [compound 150, 10-acetyl-11-(4-benzyloxy-2,6-dichlorophenyl)-3,3-dimethyl-2,3,4,5,10,11-hexahydro-1H-dibenzo[b,e][1,4]diazepin-1-one]	> 133 µM	1.69 µM	–	–
Cc1ccc(C2C3=C(CC(c4ccc(Cl)cc4)CC3=O)Nc3ccccc3N2C(=O)C(F)(F)F)cc1 (centres unmarked) [compound 160]	–	–	> 33.3 µM	> 25 µM
Cc1ccc(C2CC(=O)C3=C(C2)Nc2ccccc2N(C(=O)CCC(=O)O)C3c2ccc(C)cc2)cc1 (centres unmarked) [compound 161]	29.9 µM	> 25 µM	–	–
CCCOc1ccccc1C1CC(=O)C2=C(C1)Nc1ccccc1N(C(=O)C(F)(F)F)C2c1ccc(OC)cc1 (centres unmarked) [compound 163]	–	–	> 42.7 µM	1.76 µM
CCCCCC(=O)N1c2ccccc2NC2=C(C(=O)CC(c3ccc(Cl)cc3)C2)C1c1ccc(Cl)cc1 (centres unmarked) [compound 164]	> 33.3 µM	18.5 µM	–	–

Compound	IC50 [1, 3]	EC50 [2, 4]	IC50 [1, 5]	EC50 [2, 6]
COc1ccc(C2CC(=O)C3=C(C2)Nc2ccccc2N(C(C)=O)C3c2ccc(Cl)cc2)cc1 (centres unmarked) [compound 165]	–	–	> 33.3 µM	18.6 µM
Cc1ccc(C2C3=C(CC(c4ccccc4F)CC3=O)Nc3ccccc3N2C(=O)c2ccccc2)cc1 (centres unmarked) [compound 166]	–	–	> 42.7 µM	3.98 µM
CCCCOc1ccc(C2CC(=O)C3=C(C2)Nc2ccccc2N(C(=O)c2ccccc2)C3c2ccccc2)cc1 (centres unmarked) [compound 167]	–	–	> 42.7 µM	3.25 µM
CCCCCC(=O)N1c2ccccc2NC2=C(C(=O)CC(c3cccc([N+](=O)[O-])c3)C2)C1c1ccc(OC)cc1 (centres unmarked) [compound 168]	–	–	> 42.7 µM	3.61 µM
Cc1ccc(C2CC(=O)C3=C(C2)Nc2ccccc2N(C(=O)C(F)(F)F)C3c2ccccc2Cl)cc1 (centres unmarked) [compound 169]	–	–	> 33.3 µM	17.7 µM
COc1ccc(C2CC(=O)C3=C(C2)Nc2ccccc2N(C(=O)c2ccccc2)C3c2ccc(C)cc2)cc1OC (centres unmarked) [compound 170]	–	–	> 42.7 µM	3.75 µM
CCCCOc1ccc(C2CC(=O)C3=C(C2)Nc2ccccc2N(C(=O)C(F)(F)F)C3c2ccccc2)cc1 (centres unmarked) [compound 171]	–	–	> 42.7 µM	4.54 µM
COc1ccc(C2CC(=O)C3=C(C2)Nc2ccccc2N(C(C)=O)C3c2cccc([N+](=O)[O-])c2)cc1OC (centres unmarked) [compound 172]	–	–	> 42.7 µM	11.3 µM
CCOc1ccccc1C1CC(=O)C2=C(C1)Nc1ccccc1N(C(=O)C(F)(F)F)C2c1ccc(OC)cc1 (centres unmarked) [compound 173]	–	–	> 42.7 µM	0.208 µM
CCCCCC(=O)N1c2ccccc2NC2=C(C(=O)CC(c3cccc([N+](=O)[O-])c3)C2)C1c1ccc(OC)c(OC)c1 (centres unmarked) [compound 174]	–	–	> 42.7 µM	1.85 µM
CCOc1ccccc1C1C2=C(CC(c3ccc(OC)cc3)CC2=O)Nc2ccccc2N1C(C)=O (centres unmarked) [compound 179]	–	–	> 42.7 µM	8.54 µM
CCC(C)Oc1ccccc1C1C2=C(CC(c3ccc(OC)c(OC)c3)CC2=O)Nc2ccccc2N1C(=O)c1ccccc1 (centres unmarked) [compound 183]	> 42.7 µM	1.32 µM	–	–
CCC(=O)N1c2ccccc2NC2=C(C(=O)CC(c3ccc(C)cc3)C2)C1c1ccc(C)cc1 (centres unmarked) [compound 201]	> 33.3 µM	9.62 µM	–	–
CCOc1ccccc1C1CC(=O)C2=C(C1)Nc1ccccc1N(C(=O)CC)C2c1ccc(OC)cc1 (centres unmarked) [compound 219]	–	–	> 42.7 µM	2.26 µM
CCCOc1ccccc1C1CC(=O)C2=C(C1)Nc1ccccc1N(C(=O)CC)C2c1ccc(OC)cc1 (centres unmarked) [compound 220]	–	–	> 42.7 µM	3.08 µM
COc1ccc(C2C3=C(CC(c4cccc([N+](=O)[O-])c4)CC3=O)Nc3ccccc3N2C(=O)c2ccccc2)cc1 (centres unmarked) [compound 221]	–	–	> 42.7 µM	23.2 µM
CCCCCC(=O)N1c2ccccc2NC2=C(C(=O)CC(c3ccccc3OCCC)C2)C1c1ccc(OC)cc1 (centres unmarked) [compound 222]	–	–	> 42.7 µM	7.73 µM
CCC(=O)N1c2ccccc2NC2=C(C(=O)CC(c3ccc(OC)cc3)C2)C1c1ccc(OC)cc1 (centres unmarked) [compound 223]	> 42.7 µM	25 µM	–	–
CCCCCC(=O)N1c2ccccc2NC2=C(C(=O)CC(c3ccccc3)C2)C1c1ccccc1F (centres unmarked) [compound 224]	–	–	> 33.3 µM	16.1 µM
COc1ccc(C2CC(=O)C3=C(C2)Nc2ccccc2N(C(=O)C(F)(F)F)C3c2ccc(Cl)cc2)cc1OC (centres unmarked) [compound 226]	–	–	> 33.3 µM	16.3 µM
